According to patent publication US20230357222A1, “SELECTIVE SMALL MOLECULE DEGRADERS OF CEREBLON” (DANA-FARBER CANCER INSTITUTE, INC., priority 2020, published 2023):

Experiments:
Format in all cases: cell-based
[1] = target: T1, cereblon (CRBN) (Homo sapiens, UniProt Q96SW2); test: CRBN degradation in MM1.s cells, time course experiment, immunoblot; conditions: 50-nM dose
T1 construct: endogenous in cells; host or cells: MM1.s cells (also HEK293T, MOLT4, SK-N-DZ and Kelly cells for compound 1)
Experimental: (§1) MM1.S cells were generously provided by James Bradner (Dana-Farber Cancer Institute (DFCI), Boston, MA). MM1.S cells were cultured in Roswell Park Memorial Institute (RPMI)-1640 media containing L-glutamine, supplemented with 10% fetal bovine serum (FBS) and 1% penicillin/streptomycin. Mycoplasma testing was performed on a monthly basis and all lines were negative.
(§2) Cells were washed with ice cold phosphate-buffered saline (PBS) before being lysed with Cell Lysis Buffer (Cell Signaling Technology®) supplemented with protease and phosphatase inhibitor cocktails (Roche®) at 4° C. for 15 minutes. The cell lysate was vortexed before being centrifuged at 14,000×g for 20 min at 4° C. Protein in cell lysate was quantified by bicinchoninic acid (BCA) assay (Pierce™). Primary antibodies used in this study include CDK9 (Cell Signaling Technology®, 2316S), CKlα (Abcam®, ab206652), CRBN (Novus Biologicals®, NBP1-91810), eRF3/GSPT1 (Abcam®, ab49878), IKZF1 (Ikaros) (Cell Signaling Technology®, 5443S), IKZF3 (Aiolos) (Cell Signaling Technology®, 15103S), VHL (Cell Signaling Technology®, 68547S), and vinculin (Abcam®, ab130007). Blot quantification was performed using Image Studio 4.0 software, normalizing to loading controls.
The experimental protocol is set forth above in Example 7.

[2] = target: T1, cereblon (CRBN); test: Proteomic analysis (TMT LC-MS3) of protein abundance in cells; conditions: MM1.s cells, 50 nM, 6 hours
Experimental: MM1.s cells were treated with DMSO or 50 nM of bispecific compound 1 or 6 in biological triplicates for 6 hours and cells harvested by centrifugation. Lysis buffer (8 M Urea, 50 mM NaCl, 50 mM 4-(2hydroxyethyl)-1-piperazineethanesulfonic acid (EPPS) pH 8.5, Protease and Phosphatase inhibitors from Roche®) was added to the cell pellets and homogenized by 20 passes through a 21 gauge (1.25 in. long) needle to achieve a cell lysate with a protein concentration between 1-4 mg mL-1. A micro-BCA assay (Pierce™) was used to determine the final protein concentration in the cell lysate. 200 μg of protein for each sample were reduced and alkylated as described in Donovan et al., Elife 7:e38430 (2018).
Proteins were precipitated using methanol/chloroform. In brief, four volumes of methanol were added to the cell lysate, followed by one volume of chloroform, and finally three volumes of water. […]
Anhydrous ACN was added to each peptide sample to a final concentration of 30% v/v, and labeling was induced with the addition of TMT reagent to each sample at a ratio of 1:4 peptide:TMT label. […] The sample channels were combined at a 1:1:1:1:1:1:1:1:1:1 ratio, desalted using C18 solid phase extraction cartridges (Waters®) and analyzed by LC-MS for channel ratio comparison. Samples were then combined using the adjusted volumes determined in the channel ratio analysis and dried down in a speed vacuum. […]

[3] = target: T1, cereblon (CRBN); test: CRBN degradation in MM1.s cells, 4-h dose titration, immunoblot; conditions: 4-h dose titration treatment
Experimental: as §1, §2

T1 sequence (Q96SW2 whole entry): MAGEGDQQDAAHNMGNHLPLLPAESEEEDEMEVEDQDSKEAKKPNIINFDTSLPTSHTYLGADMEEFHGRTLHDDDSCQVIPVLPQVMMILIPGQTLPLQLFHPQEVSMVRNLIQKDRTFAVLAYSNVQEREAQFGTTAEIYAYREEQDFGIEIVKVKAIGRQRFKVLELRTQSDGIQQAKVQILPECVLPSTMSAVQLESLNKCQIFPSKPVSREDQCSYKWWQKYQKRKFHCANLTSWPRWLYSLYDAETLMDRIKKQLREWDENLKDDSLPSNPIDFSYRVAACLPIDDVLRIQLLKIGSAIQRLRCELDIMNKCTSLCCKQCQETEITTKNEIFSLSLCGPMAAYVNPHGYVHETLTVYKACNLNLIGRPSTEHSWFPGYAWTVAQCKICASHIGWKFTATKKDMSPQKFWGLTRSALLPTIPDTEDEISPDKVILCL

Row | SMILES | earliest time at which CRBN degradation is seen after treatment [1] [h] | proteins significantly degraded by proteomic analysis (selectivity) [2] | CRBN degrader potency and selectivity (in words) [3] | concentration at which virtually complete degradation of CRBN is seen [3]
1 | Cc1ncsc1-c1ccc(CNC(=O)[C@@H]2C[C@@H](O)CN2C(=O)[C@@H](NC(=O)CCCCCCCCCCOc2cccc3c2C(=O)N(C2CCC(=O)NC2=O)C3=O)C(C)(C)C)cc1 (stereo partly drawn) [Compound 1, (2S,4R)-1-((2S)-2-(11-((2-(2,6-dioxopiperidin-3-yl)-1,3-dioxoisoindolin-4-yl)oxy)undecanamido)-3,3-dimethylbutanoyl)-4-hydroxy-N-(4-(4-methylthiazol-5-yl)benzyl)pyrrolidine-2-carboxamide] | 1 | only CRBN was significantly degraded | highly potent and selective degraders of CRBN | around 50 nM
2 | Cc1ncsc1-c1ccc([C@H](C)NC(=O)[C@@H]2C[C@@H](O)CN2C(=O)[C@@H](NC(=O)CCCCCCCCCCOc2cccc3c2C(=O)N(C2CCC(=O)NC2=O)C3=O)C(C)(C)C)cc1 (stereo partly drawn) [Compound 6, (2S,4R)-1-((2S)-2-(11-((2-(2,6-Dioxopiperidin-3-Yl)-1,3-Dioxoisoindolin-4-Yl)Oxy)Undecanamido)-3,3-Dimethylbutanoyl)-4-Hydroxy-N-((S)-1-(4-(4-Methylthiazol-5-Yl)Phenyl)Ethyl)Pyrrolidine-2-Carboxamide] | 1 | only CRBN was significantly degraded | highly potent and selective degraders of CRBN | around 50 nM
